# Data as given in US20030118627A1 (DABUR RESEARCH FOUNDATION, priority 2001, published 2003).
# What was measured:
# [1] = tested on: MOLT 4; test: MTT cytotoxicity assay, MOLT 4 leukemia; assay type: cell-based; conditions: Homo sapiens
# Description: (§1) Briefly, a […] MTT cytotoxicity assay was performed, which is based on the principle of uptake of MTT (3-(4,5-dimethylthiazol-2-yl)-2,5-diphenyl tetrazolium bromide), a tetrazolium salt, by the metabolically active cells where it is metabolized by active mitochondria into a blue colored formazan product that is read spectrophoto-metrically. MTT was dissolved in phosphate buffered saline with a pH of 7.4 to obtain an MTT concentration of 5 mg/ml; the resulting mixture was filtered through a 0.22 micron filter to sterilize and remove a small amount of insoluble residue. For each type of tumor cell, 20,000 to 50,000 cells were seeded in a 96-well culture plate and incubated with the combination in a CO2 incubator for 24 hours. […] The assay was terminated after 24 hours by adding 100 ug (20 ul) of MTT to each well, then incubating for additional one hour, and finally adding 50 ul of 10% SDS-0.01N HCl to each well to lyse the cells and dissolve formazan. After incubating for one hour, the plate was read spectrophotometrically at 540 nm and the percentage cytotoxicity calculated.
# [2] = tested on: PA 1; test: MTT cytotoxicity assay, PA 1 ovary; assay type: cell-based; conditions: Homo sapiens
# Description: as §1
# [3] = tested on: PTC; test: MTT cytotoxicity assay, PTC colon; assay type: cell-based; conditions: Homo sapiens
# Description: as §1
# [4] = tested on: Miapaca2; test: MTT cytotoxicity assay, Miapaca2 pancreas; assay type: cell-based; conditions: Homo sapiens
# Description: as §1
# [5] = tested on: DU145; test: MTT cytotoxicity assay, DU145 prostate; assay type: cell-based; conditions: Homo sapiens
# Description: as §1
# [6] = tested on: L132; test: MTT cytotoxicity assay, L132 lung; assay type: cell-based; conditions: Homo sapiens
# Description: as §1
# [7] = tested on: MCF7; test: MTT cytotoxicity assay, MCF7 breast; assay type: cell-based; conditions: Homo sapiens
# Description: as §1
# [8] = tested on: U87MG; test: MTT cytotoxicity assay, U87MG glioblastoma; assay type: cell-based; conditions: Homo sapiens, U-87 MG, 24 h, read-out: ED50 values of cytotoxicity
# Description: as §1
# [9] = tested on: KB; test: MTT cytotoxicity assay, KB oral; assay type: cell-based; conditions: Homo sapiens, 24 h, read-out: ED50 values of cytotoxicity
# Description: as §1
# [10] = tested on: Hep2; test: MTT cytotoxicity assay, Hep2 larynx; assay type: cell-based; conditions: Homo sapiens, HEp-2, 24 h, read-out: ED50 values of cytotoxicity
# Description: as §1
# [11] = tested on: 293; test: MTT cytotoxicity assay, 293 kidney; assay type: cell-based; conditions: Homo sapiens, HEK293, 24 h, read-out: ED50 values of cytotoxicity
# Description: as §1
# [12] = tested on: INT 407; test: MTT cytotoxicity assay, INT 407 intestine; assay type: cell-based; conditions: Homo sapiens, 24 h, read-out: ED50 values of cytotoxicity
# Description: as §1
# [13] = tested on: Swiss albino mice; conditions: both, mouse, in vivo, po, 15 days
# Description: Acute toxicity studies were performed using the oral route of administration.
# A batch of 5 female and 5 male mice each was administered the test substance by oral route. […] Another batch of 5 female and 5 male served as control.
# Observations were made three times on the day of dosing and twice daily thereafter for the remainder of 14 days or until reversible toxic signs or symptoms subsided. All gross visible toxic signs and symptoms were recorded. Body weights were recorded prior to dosing and weekly thereafter.
# [14] = 1.0 mM, read-out: Percent cytotoxicity
# [15] = 2.5 mM, read-out: Percent cytotoxicity
# [16] = 4 mM, read-out: Percent cytotoxicity
# [17] = 5 mM, read-out: Percent cytotoxicity
# [18] = 10 mM, read-out: Percent cytotoxicity
# [19] = 24 h, read-out: ED50 values of cytotoxicity
smiles,measurement,setting,value
"CCCCOC(=O)C1CCC(=O)N1C(O)C(C)=O (centres unmarked) [MGC-2, N-(1-hydroxy-2-ketopropyl)-butylpyroglutamate]",IC50,"[1]; 24 h, Molt 4 Leukemia, read-out: ED50 values of cytotoxicity",< 1000 µM
same,cytotoxicity at 1000 µM,"[1]; MOLT 4 Leukemia, 1.0 mM, read-out: Percent cytotoxicity",75.9%
same,cytotoxicity at 2500 µM,"[1]; MOLT 4 Leukemia, 2.5 mM, read-out: Percent cytotoxicity",85.9 ± 6.3%
same,cytotoxicity at 4000 µM,"[1]; MOLT 4 Leukemia, 4 mM, read-out: Percent cytotoxicity",87.8 ± 5%
same,cytotoxicity at 5000 µM,"[1]; MOLT 4 Leukemia, 5 mM, read-out: Percent cytotoxicity",88.2 ± 5.9%
same,cytotoxicity at 10000 µM,"[1]; MOLT 4 Leukemia, 10 mM, read-out: Percent cytotoxicity",90.2 ± 7.2%
same,IC50,"[2]; 24 h, PA 1 Ovarian, read-out: ED50 values of cytotoxicity",1200 ± 200 µM
same,cytotoxicity at 2500 µM,"[2]; PA 1 Ovary, 2.5 mM, read-out: Percent cytotoxicity",57.9 ± 4.5%
same,cytotoxicity at 4000 µM,"[2]; PA 1 Ovary, 4 mM, read-out: Percent cytotoxicity",67.9 ± 5.4%
same,cytotoxicity at 5000 µM,"[2]; PA 1 Ovary, 5 mM, read-out: Percent cytotoxicity",84.9 ± 4.8%
same,cytotoxicity at 10000 µM,"[2]; PA 1 Ovary, 10 mM, read-out: Percent cytotoxicity",87.9 ± 6.3%
same,cytotoxicity at 1000 µM,[3]; [14],45.8%
same,cytotoxicity at 2500 µM,[3]; [15],68.9 ± 5.3%
same,cytotoxicity at 4000 µM,[3]; [16],85.9 ± 6.2%
same,cytotoxicity at 5000 µM,[3]; [17],88.8 ± 5.3%
same,cytotoxicity at 10000 µM,[3]; [18],86.9 ± 5%
same,IC50,[3]; [19],1600 ± 100 µM
same,cytotoxicity at 1000 µM,"[4]; MIA PaCa-2, 1.0 mM, read-out: Percent cytotoxicity",34.8%
same,cytotoxicity at 2500 µM,"[4]; MIA PaCa-2, 2.5 mM, read-out: Percent cytotoxicity",64.9 ± 5.9%
same,cytotoxicity at 4000 µM,"[4]; MIA PaCa-2, 4 mM, read-out: Percent cytotoxicity",74.9 ± 3.8%
same,cytotoxicity at 5000 µM,"[4]; MIA PaCa-2, 5 mM, read-out: Percent cytotoxicity",76.9 ± 4%
same,cytotoxicity at 10000 µM,"[4]; MIA PaCa-2, 10 mM, read-out: Percent cytotoxicity",84.9 ± 6.3%
same,IC50,"[4]; MIA PaCa-2, 24 h, read-out: ED50 values of cytotoxicity",1700 ± 600 µM
same,cytotoxicity at 1000 µM,"[5]; DU-145, 1.0 mM, read-out: Percent cytotoxicity",43.9%
same,cytotoxicity at 2500 µM,"[5]; DU-145, 2.5 mM, read-out: Percent cytotoxicity",53.9 ± 3.8%
same,cytotoxicity at 4000 µM,"[5]; DU-145, 4 mM, read-out: Percent cytotoxicity",58.9 ± 4.3%
same,cytotoxicity at 5000 µM,"[5]; DU-145, 5 mM, read-out: Percent cytotoxicity",67.9 ± 5.2%
same,cytotoxicity at 10000 µM,"[5]; DU-145, 10 mM, read-out: Percent cytotoxicity",86.9 ± 6.9%
same,IC50,"[5]; DU-145, 24 h, read-out: ED50 values of cytotoxicity",1600 ± 100 µM
same,cytotoxicity at 1000 µM,[6]; [14],34.8%
same,cytotoxicity at 2500 µM,[6]; [15],58.5 ± 3.6%
same,cytotoxicity at 4000 µM,[6]; [16],62.9 ± 2.9%
same,cytotoxicity at 5000 µM,[6]; [17],87.8 ± 5.8%
same,cytotoxicity at 10000 µM,[6]; [18],88.6 ± 3%
same,IC50,[6]; [19],1900 ± 800 µM
same,IC50,"[7]; MCF7, 24 h, MCF 7 Breast, read-out: ED50 values of cytotoxicity",2500 ± 400 µM
same,cytotoxicity at 1000 µM,"[7]; MCF7 breast, 1.0 mM, read-out: Percent cytotoxicity",34.7%
same,cytotoxicity at 2500 µM,"[7]; MCF7 breast, 2.5 mM, read-out: Percent cytotoxicity",50.6 ± 4.1%
same,cytotoxicity at 4000 µM,"[7]; MCF7 breast, 4 mM, read-out: Percent cytotoxicity",57.9 ± 4.8%
same,cytotoxicity at 5000 µM,"[7]; MCF7 breast, 5 mM, read-out: Percent cytotoxicity",67.9 ± 4%
same,cytotoxicity at 10000 µM,"[7]; MCF7 breast, 10 mM, read-out: Percent cytotoxicity",78.9 ± 5.2%
same,IC50,[8],3150 ± 1100 µM
same,IC50,[9],2600 ± 500 µM
same,IC50,[10],2000 ± 300 µM
same,IC50,[11],2000 ± 800 µM
same,IC50,[12],2700 ± 800 µM
same,safe dose,[13],75 mg
